Source: patent publication US7572828B2, “Identification of anti-HIV compounds inhibiting virus assembly and binding of nucleocapsid protein to nucleic acid” (The United States of America as represented by the …, priority 2002, dated 2009)

Experiments:
HIV = assay: XTT-cytoprotection assay, cell based anti-HIV screening in CEM-SS cells; details: for XTT: protection from HIV infection
From the text: One exemplary means to determine antiviral activity is with CEM-SS cells and virus (e.g., HIV-1RF) (MOI=0.01) using the XTT (2,3-bis[2-methoxy- 4-nitro-5-sulfophenyl]-5- [(phenylamino)carbonyl]-2H-tetrazolium hydroxide) cytoprotection assay (see, e.g., Weislow, et al, J. Natl. Canc. Inst. 81: 577-586, 1989; Rice PNAS 90:9721-9724, 1993; and Rice Antimicrob. Agents Chemother. 41:419-426, 1997). Briefly, cells are infected with HIV-1RF (or other virus to be tested) in the presence of various dilutions of test compounds (antimony or diphenyl compounds and controls). The cultures are incubated for seven days. […] The cell death is measured by XTT dye reduction. XTT is a soluble tetrazolium dye that measures mitochondrial energy output, similar to MTT. Positive controls using dextran sulfate (an attachment inhibitor) or 3′-Azido -2′-3′-dideoxythymidine, AZT (a reverse transcriptase inhibitor) are added to each assay. Individual assays are done in duplicate using a sister plate method.
Effective antiviral concentrations providing 50% cytoprotection (EC50), and cellular growth inhibitory concentrations causing 50% cytotoxicity (IC50) are calculated.
Cell based anti-HIV screening was performed in CEM-SS cells, using an XTT-cytoprotection assay (see, e.g., Weislow, et al, J. Natl. Canc. Inst. 81: 577-586, 1989; Rice PNAS 90:9721-9724, 1993; and Rice Antimicrob. Agents Chemother. 41:419-426, 1997)).

Gag precursor protein = biological target: T1, Gag precursor protein (Human immunodeficiency virus type 1 group M subtype B, UniProt P04591); assay: Secondary screen: disruption of in vitro assembly of Gag precursor protein into virus-like particles; type: biochemical; details: for disrupted viral assembly: artificial viral particles from recombinant Gag protein and tRNA; for EC50: in vitro, assay not given
T1 construct: human immunodeficiency virus type 1 Gag protein lacking the p6 domain; made in house
From the text: A secondary screen was used to identify small molecules that disrupt in vitro assembly of Gag precursor protein into virus-like particles. Artificial viral particles were assembled from recombinant Gag protein and tRNA as previously described (see, e.g., Campbell & Rein, “In vitro assembly properties of human immunodeficiency virus type 1 Gag protein lacking the p6 domain” J. Virol. 73: 2270-2279, 1999). […]

NC-p7 protein = biological target: T2, NC-p7 protein (Human immunodeficiency virus type 1 group M subtype B, UniProt P04591); assay: High throughput screen: disruption of association of viral NC-p7 protein with a biotinylated 28 base oligonucleotide; type: binding, HIV-1; details: 10 μM of test compound; hit threshold 100% inhibition
T2 construct: nucleocapsid p7 (NCp7) protein portion of the polyprotein
Procedure: A high throughput screen was used to detect small molecules that disrupted the association of viral NC-p7 protein with an oligonucleotide. The assay was performed using a Tomtec Quadra robotic system. NC protein was immobilized on Costar (Corning, N.Y.) high-bind polystyrene 96 well plates by incubating 100 μl 250 nM NC-p7 in phosphate buffered saline (PBS)/10 μM zinc chloride/10 mM β-mercaptoethanol/0.05% Tween overnight at 4° C. 200 μl of 2% BSA in PBS/10 μM zinc chloride/10 mM β-mercaptoethanol/0.05% Tween was added and incubated at room temperature for 1-2 hours in order to block the plates. The plates were then washed 2 times with 200 μl PBS/10 μM zinc chloride/10 mM β-mercaptoethanol/0.05% Tween using a Titertek M96V plate washer and stored overnight at 4° C. 5 nM biotinylated 28 base oligonucleotide (5′ […] 3′) in PBS/10 μM zinc chloride/10 mM β-mercaptoethanot/0.05% Tween was added to each well followed by 10 μM of test compound (in 20% dimethyl sulphoxide) from the Diversity Set and allowed to incubate at room temperature for 1 hour. Plates were then washed 3 times with 200 μl PBS/0.05% Tween. Binding of the biotinylated 28 mer was measured by adding 100 μl 1:20000 dilution of nutravidin-horse radish peroxidase (stock 0.8 mg/ml, from Pierce Chemical Co. Rockford, Ill.) and incubating at room temperature for 1 hour. The plates were washed 3 times with 200 μl PBS/0.05% Tween. Plates were developed by adding 100 μl of Supersignal (Pierce Chemical Co. Rockford, Ill.) and bioluminescence was measured in a Wallac Victor plate reader. […] The hit threshold was set at 100% inhibition.

p24 = details: unit not given
Tolerability in mice = type: in vivo
CEM-SS Leukemia cells = assay: Uptake of radio-labelled compound in cells; type: in vitro ADME

| Structure (SMILES) | activity in the cell based assay (XTT cytoprotection ranking) (HIV) | disrupted viral assembly (Gag precursor protein) | Active compounds identified in high throughput screen (disruption of NC-p7/oligonucleotide association) (NC-p7 protein) | XTT (HIV) | EC50 (Gag precursor protein) [µM] | p24 assay (p24) | tolerability in vivo (Tolerability in mice) | uptake of the compound in cells (CEM-SS Leukemia cells) |
| --- | --- | --- | --- | --- | --- | --- | --- | --- |
| O=C(O)c1ccc(C(=O)c2ccccc2C(=O)O)cc1C(=O)O [NSC 28620] | active | disrupted viral assembly | Active | – | – | – | – | – |
| O=C(O)c1cc[c]([Sb](=[O])([OH])[OH])cc1[N+](=O)[O-] [NSC 13755] | active | disrupted viral assembly | Active | A (active (80-100% protection from HIV infection)) | 6.15 | 0.21 | – | – |
| NC(=O)c1ccc[c]([Sb](=[O])([OH])[OH])c1 [NSC 13765] | active | disrupted viral assembly | – | A (active (80-100% protection from HIV infection)) | 3.75 | 0.41 | – | – |
| O=C(O)/C=C/c1ccc[c]([Sb](=[O])([OH])[OH])c1 [NSC 13778] | active | disrupted viral assembly | Active | A (active (80-100% protection from HIV infection)) | 3.8 | 0.11 | tolerated in vivo | energy-dependent uptake |
| O=C(NCCO)c1ccc[c]([Sb](=[O])([OH])[OH])c1 [NSC 13782] | exhibited activity | – | – | – | – | – | – | – |
| CCOC(=O)CCCc1cc[c]([Sb](=[O])([OH])[OH])cc1 [NSC 13793] | – | disrupted viral assembly | – | I (inactive (0-49% protection)) | 3.25 | 0.14 | – | – |
| O=S(=O)(O)c1cc[c]([Sb](=[O])([OH])[OH])cc1 [NSC 13746] | active | disrupted viral assembly | Active | A (active (80-100% protection from HIV infection)) | 10 | – | – | – |
| O=C(O)c1cc[c]([Sb](=[O])([OH])[OH])cc1 [NSC 13760] | active | disrupted viral assembly | – | A (active (80-100% protection from HIV infection)) | 1.15 | 0.29 | – | – |
| O=C(O)c1ccc[c]([Sb](=[O])([OH])[OH])c1 [NSC 13759] | active | disrupted viral assembly | – | A (active (80-100% protection from HIV infection)) | 1.5 | 0.19 | – | – |
| COC(=O)c1ccc[c]([Sb](=[O])([OH])[OH])c1 [NSC 13771] | – | disrupted viral assembly | – | I (inactive (0-49% protection)) | 5.5 | 0.2 | – | – |
